Measurements as given in patent US8586739B2, “Heterocyclic compounds and their uses” (Amgen Inc., priority 2007, dated 2013).

Legend:
PI3Kδ = target: T1, PI3Kδ (Homo sapiens, UniProt O00329); assay: In vitro enzyme assay of recombinant PI3K (residual ATP bioluminescence); assay type: biochemical
T1 construct: Full length p110 subunits of PI3k α, β and δ, N-terminally labeled with polyHis tag; polyHis (N); made in house; host or cells: Sf9 insect cells (baculovirus)
Protocol: Recombinant Expression of PI3Ks
Full length p110 subunits of PI3k α, β and δ, N-terminally labeled with polyHis tag, were coexpressed with p85 with Baculo virus expression vectors in sf9 insect cells. P110/p85 heterodimers were purified by sequential Ni-NTA, Q-HP, Superdex-100 chromatography. Purified α, β and δ isozymes were stored at −20° C. in 20 mM Tris, pH 8, 0.2M NaCl, 50% glycerol, 5 mM DTT, 2 mM Na cholate. Truncated PI3Kγ, residues 114-1102, N-terminally labeled with polyHis tag, was expessed with Baculo virus in Hi5 insect cells. The γ isozyme was purified by sequential Ni-NTA, Superdex-200, Q-HP chromatography. The γ isozyme was stored frozen at −80° C. in NaH2PO4, pH 8, 0.2M NaCl, 1% ethylene glycol, 2 mM β-mercaptoethanol.
Assays were performed in 25 μL with the above final concentrations of components in white polyproplyene plates (Costar 3355). Phospatidyl inositol phosphoacceptor, PtdIns(4,5)P2 P4508, was from Echelon Biosciences. The ATPase activity of the alpha and gamma isozymes was not greatly stimulated by PtdIns(4,5)P2 under these conditions and was therefore omitted from the assay of these isozymes. Test compounds were dissolved in dimethyl sulfoxide and diluted with three-fold serial dilutions. The compound in DMSO (1 μL) was added per test well, and the inhibition relative to reactions containing no compound, with and without enzyme was determined. After assay incubation at room temperature, the reaction was stopped and residual ATP determined by addition of an equal volume of a commercial ATP bioluminescence kit (Perkin Elmer EasyLite) according to the manufacturer's instructions, and detected using a AnalystGT luminometer.

human B cells = assay: Human B cells proliferation stimulated by anti-IgM (3H thymidine); assay type: cell-based; details: Homo sapiens, B-cell, 72 h, purified human B cells, anti-Human IgM + CD40L-LZ
Procedure, shortened: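 Human B cells were magnetically purified from PBMCs and plated at 50000/well in DMEM+5% FCS. Medium containing 250 ng/mL CD40L-LZ and 2 μg/mL anti-IgM was combined with PI3K inhibitor medium, and cells were incubated 72 h at 37° C. Proliferation was read by 0.5-1 uCi/well ^3H thymidine pulse (~18 h).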

T1 sequence (O00329 whole entry): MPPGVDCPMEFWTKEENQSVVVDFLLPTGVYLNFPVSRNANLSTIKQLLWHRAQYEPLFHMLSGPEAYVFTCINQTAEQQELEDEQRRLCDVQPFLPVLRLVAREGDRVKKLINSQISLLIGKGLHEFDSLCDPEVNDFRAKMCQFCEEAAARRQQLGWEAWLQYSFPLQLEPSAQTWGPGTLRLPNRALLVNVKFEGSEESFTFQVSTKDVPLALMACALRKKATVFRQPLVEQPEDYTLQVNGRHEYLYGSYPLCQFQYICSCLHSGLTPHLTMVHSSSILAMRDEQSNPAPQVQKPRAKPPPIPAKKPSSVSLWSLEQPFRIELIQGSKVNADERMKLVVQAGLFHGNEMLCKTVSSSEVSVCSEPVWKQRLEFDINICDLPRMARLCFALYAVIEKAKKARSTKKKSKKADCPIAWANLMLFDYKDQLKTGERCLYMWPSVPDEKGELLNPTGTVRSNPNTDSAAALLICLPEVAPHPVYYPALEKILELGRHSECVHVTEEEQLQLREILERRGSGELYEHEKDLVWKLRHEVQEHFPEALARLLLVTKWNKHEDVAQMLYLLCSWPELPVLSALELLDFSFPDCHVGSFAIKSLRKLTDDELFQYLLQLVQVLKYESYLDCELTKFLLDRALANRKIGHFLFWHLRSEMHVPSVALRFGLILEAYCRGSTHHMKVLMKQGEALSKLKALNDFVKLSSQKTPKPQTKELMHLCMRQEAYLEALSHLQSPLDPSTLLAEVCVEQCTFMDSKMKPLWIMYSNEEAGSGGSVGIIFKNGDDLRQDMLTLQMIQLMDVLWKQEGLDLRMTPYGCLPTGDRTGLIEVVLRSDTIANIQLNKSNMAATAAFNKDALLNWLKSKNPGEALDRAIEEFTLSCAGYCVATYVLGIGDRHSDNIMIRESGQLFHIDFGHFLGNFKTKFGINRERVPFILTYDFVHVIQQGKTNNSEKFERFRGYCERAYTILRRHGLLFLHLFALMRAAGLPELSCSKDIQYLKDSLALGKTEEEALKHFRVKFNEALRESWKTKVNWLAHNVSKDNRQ
T1 sequence (P27986 whole entry partner): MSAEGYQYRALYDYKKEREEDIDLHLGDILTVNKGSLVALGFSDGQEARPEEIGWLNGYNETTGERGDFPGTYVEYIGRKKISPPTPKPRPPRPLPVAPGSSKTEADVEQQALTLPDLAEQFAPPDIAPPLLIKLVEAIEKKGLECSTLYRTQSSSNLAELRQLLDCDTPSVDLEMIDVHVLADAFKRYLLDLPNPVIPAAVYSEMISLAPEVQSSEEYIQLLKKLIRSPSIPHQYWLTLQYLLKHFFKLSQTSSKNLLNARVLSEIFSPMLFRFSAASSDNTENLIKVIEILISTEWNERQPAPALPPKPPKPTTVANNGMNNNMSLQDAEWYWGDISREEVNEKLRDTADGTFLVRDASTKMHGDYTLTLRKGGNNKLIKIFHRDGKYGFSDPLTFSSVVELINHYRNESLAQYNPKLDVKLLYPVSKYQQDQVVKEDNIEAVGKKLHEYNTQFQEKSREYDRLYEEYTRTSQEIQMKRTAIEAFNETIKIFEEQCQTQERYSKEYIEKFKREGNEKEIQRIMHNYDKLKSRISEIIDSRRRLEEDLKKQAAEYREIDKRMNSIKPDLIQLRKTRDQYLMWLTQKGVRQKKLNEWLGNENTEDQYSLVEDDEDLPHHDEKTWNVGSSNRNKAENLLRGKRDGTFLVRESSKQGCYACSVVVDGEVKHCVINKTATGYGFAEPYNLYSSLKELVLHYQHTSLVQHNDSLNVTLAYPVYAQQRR

Q: How did the IC50 (PI3Kδ) turn out when `Clc1cccc2cc(CNc3ncnc4[nH]ccc34)c(-c3ccccc3)nc12` [Example 32, N-((8-chloro-2-phenylquinolin-3-yl)methyl)-7H-pyrrolo[2,3-d]pyrimidin-4-amine] was run?
A: The IC50 was 0.27 µM.

Q: With `CS(=O)(=O)c1ccccc1-c1nc2c(Cl)cccc2cc1CNc1ncnc2[nH]cnc12` [Example 35, N-((8-chloro-2-(2-(methylsulfonyl)phenyl)quinolin-3-yl)methyl)-9H-purin-6-amine] as the compound, how does the IC50 (PI3Kδ) read?
A: The IC50 was 0.222 µM.

Q: With `Cc1ccccc1-c1nc2c(C)cccc2cc1COc1ncnc2c1CC(=O)N2` [Example 20, 4-((8-Methyl-2-o-tolylquinolin-3-yl)methoxy)-5H-pyrrolo[2,3-d]pyrimidin-6(7H)-one] as the compound, how does the IC50 (PI3Kδ) read?
A: Its IC50 is 0.349 µM.

Q: Which IC50 (PI3Kδ) does the source give for `Cc1cccc2nc(-c3ccccc3Cl)c(CNc3ncnc4[nH]cnc34)nc12` [Example 18, N-((3-(2-Chlorophenyl)-8-methylquinoxalin-2-yl)methyl)-9H-purin-6-amine] here?
A: The IC50 was 0.325 µM.

Q: For `Clc1nc(NCc2cc3cccc(Cl)c3nc2-c2ccccc2Cl)c2nc[nH]c2n1` [Example 3, 2-Chloro-N-((8-chloro-2-(2-chlorophenyl)quinolin-3-yl)methyl)-9H-purin-6-amine], which IC50 (PI3Kδ) is on record?
A: Its IC50 is 0.615 µM.

Q: How did the IC50 (PI3Kδ) turn out when `Cc1cccc2cc(CNc3ncnc4[nH]cnc34)c(-c3ccccc3C(F)(F)F)nc12` [Example 16, N-((8-Methyl-2-(2-(trifluoromethyl)phenyl)quinolin-3-yl)methyl)-9H-purin-6-amine] was run?
A: Its IC50 is 0.091 µM.

Q: For `Fc1cccc(-c2nc3c(Cl)cccc3cc2CNc2ncnc3[nH]cnc23)c1` [Example 31, N-((8-Chloro-2-(3-fluorophenyl)quinolin-3-yl)methyl)-9H-purin-6-amine], which IC50 (PI3Kδ) is on record?
A: The IC50 was 0.074 µM.

Q: `COc1cccc(F)c1-c1nc2c(C)cccc2cc1CNc1ncnc2[nH]cnc12` [Example 17, N-((2-(2-Fluoro-6-methoxyphenyl)-8-methylquinolin-3-yl)methyl)-9H-purin-6-amine] was tested. Which IC50 (PI3Kδ) did it give?
A: The IC50 was 0.651 µM.

Q: How did the IC50 (PI3Kδ) turn out when `C[C@@H](Nc1ncnc2[nH]cnc12)c1cc2cccc(Cl)c2nc1-c1cccc(F)c1` [N-((R)-1-(8-Chloro-2-(3-fluorophenyl)quinolin-3-yl)ethyl)-9H-purin-6-amine] was run?
A: The IC50 was 0.424 µM.

Q: How did the IC50 (PI3Kδ) turn out when `Cc1ccccc1-c1nc2c(C)cccc2cc1CNc1nc(N)nc2[nH]cnc12` [Example 13, N6-((8-Methyl-2-o-tolylquinolin-3-yl)methyl)-9H-purine-2,6-diamine] was run?
A: Its IC50 is 0.082 µM.

Q: How did the IC50 (PI3Kδ) turn out when `Cc1cccc2nc(CNc3ncnc4[nH]cnc34)c(-c3ccccc3Cl)nc12` [Example 19, N-((3-(2-Chlorophenyl)-5-methylquinoxalin-2-yl)methyl)-9H-purin-6-amine] was run?
A: The IC50 was 0.066 µM.

Q: `Cc1cccc2cc(COc3ncnc4[nH]ccc34)c(-c3ccccc3)nc12` [Example 15, 3-((7H-Pyrrolo[2,3-d]pyrimidin-4-yloxy)methyl)-8-methyl-2-phenylquinoline] was tested. Which IC50 (PI3Kδ) did it give?
A: Its IC50 is 0.068 µM.

Q: `C[C@H](Nc1ncnc2[nH]cnc12)c1nc2cccc(Cl)c2cc1-c1cccc(F)c1` [Example 43, N-((S)-1-(5-Chloro-3-(3-fluorophenyl)quinolin-2-yl)ethyl)-9H-purin-6-amine] was tested. Which IC50 (PI3Kδ) did it give?
A: Its IC50 is 0.005 µM.

Q: With `C=CCC(Oc1ncnc2[nH]ccc12)c1cc2cccc(C)c2nc1-c1ccccc1Cl` (centres unmarked) [Example 9, 3-(1-(7H-Pyrrolo[2,3-d]pyrimidin-4-yloxy)but-3-enyl)-2-(2-chlorophenyl)-8-methylquinoline] as the compound, how does the IC50 (PI3Kδ) read?
A: Its IC50 is 0.028 µM.

Q: For `Cc1cccc2cc(C(C)Nc3ncnc4[nH]cnc34)c(-c3ccccc3Cl)nc12` (centres unmarked) [Example 6, N-(1-(2-(2-Chlorophenyl)-8-methylquinolin-3-yl)ethyl)-9H-purin-6-amine], which IC50 (PI3Kδ) is on record?
A: Its IC50 is 0.031 µM.

Q: For `OC1CCCN(c2nc3c(Cl)cccc3cc2CNc2ncnc3[nH]cnc23)C1` (centres unmarked) [1-(8-chloro-3-((9H-purin-6-ylamino)methyl)-2-quinolinyl)-3-piperidinol], which IC50 (human B cells) is on record?
A: Its IC50 is 0.0988 µM.

Q: How did the IC50 (human B cells) turn out when `C[C@H](Nc1ncnc2nc[nH]c12)c1cc2cccc(F)c2nc1-c1cccnc1` [N-((1S)-1-(8-fluoro-2-(3-pyridinyl)-3-quinolinyl)ethyl)-7H-purin-6-amine] was run?
A: The IC50 was 0.0154 µM.
